Results on five compounds are retold here after patent US6339045B1, “N-(unsubstituted or substituted)-4-substituted-6-(unsubstituted or substituted)phenoxy-2-pyridinecarboxamides or thiocarboxamides, processes for producing the same, and herbicides” (Kureha Kagaku Kogyo Kabushiki Kaisha, priority 1995, dated 2002).

What all share (assay): Herbicidal effect by foliage and soil treatment
Format in all cases: in vivo
Holding throughout (settings): evaluated after 14 days

Assay [1] relates to black nightshade (Solanum nigrum). The procedure, abridged:
(§1)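 Post-emergence spray, cotyledon to bifoliate stage; Tween 20/water vehicle, fixed dose per area; greenhouse 19–25 °C; 14 d; visual growth rating vs untreated.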

Assay [2] deals with cleavers (Galium aparine). The procedure, abridged:
as §1

Assay [3] has as its system common blackjack (Bidens pilosa). An outline of the steps:
as §1

Assay [4] concerns common chickweed (Stellaria media). The procedure, abridged: as §1
Assay [5] has as its system field bindweed (Convolvulus arvensis). An outline of the steps:
as §1

The test system of assay [6] is ivyleafspeedwell (Veronica hederaefolia). The procedure, abridged:
as §1

Assay [7] deals with kediock (Sinapis arvensis). An outline of the steps: as §1
Assay [8] deals with redroot pigweed (Amaranthus retroflexus). The procedure, abridged:
as §1

Assay [9] relates to sicklepod (Cassia obtusifolia). The procedure, abridged: as §1
The test system of assay [10] is velvetleaf (Abutilon theophrasti). An outline of the steps: as §1
Assay [11] has as its system wild chamomile (Matricaria chamomilla). An outline of the steps:
as §1

Turning to `COc1cc(Oc2cccc(C(F)(F)F)c2)nc(C(=O)N(C)OC)c1` [Compound I-203], the “herbicidal activity rating, SN (Solanum nigrum)” value (“herbicidal activity rating, SN” for short) in assay [1] (10 g ai/10a) is on record as 5 (percentage of weeds killed was not less than 80%). Besides, the “herbicidal activity rating, GA (Galium aparine)” value (“herbicidal activity rating, GA” for short) in [2] (10 g ai/10a) was 5 (percentage of weeds killed was not less than 80%). Besides, the “herbicidal activity rating, BP (Bidens pilosa)” value (“herbicidal activity rating, BP” for short) in [3] (10 g ai/10a) was 3 (percentage of weeds killed was not less than 40% and less than 60%). The “herbicidal activity rating, SM (Stellaria media)” value (“herbicidal activity rating, SM” for short) in [4] (10 g ai/10a) was 4 (percentage of weeds killed was not less than 60% and less than 80%). The “herbicidal activity rating, CA (Convolvulus arvensis)” value (“herbicidal activity rating, CA” for short) in [5] (10 g ai/10a) was 4 (percentage of weeds killed was not less than 60% and less than 80%). For the same compound, the “herbicidal activity rating, VH (Veronica hederaefolia)” value (“herbicidal activity rating, VH” for short) in assay [6] (10 g ai/10a) is 5 (percentage of weeds killed was not less than 80%). For the same compound, in assay [7] (10 g ai/10a), the “herbicidal activity rating, SA (Sinapis arvensis)” value (“herbicidal activity rating, SA” for short) is recorded as 5 (percentage of weeds killed was not less than 80%). Besides, the “herbicidal activity rating, AR (Amaranthus retroflexus)” value (“herbicidal activity rating, AR” for short) in assay [8] (10 g ai/10a) is recorded as 5 (percentage of weeds killed was not less than 80%). In addition, in assay [9] (10 g ai/10a), the “herbicidal activity rating, CO (Cassia obtusifolia)” value (“herbicidal activity rating, CO” for short) was 5 (percentage of weeds killed was not less than 80%). Further, the “herbicidal activity rating, AT (Abutilon theophrasti)” value in assay [10] (10 g ai/10a) was 4 (percentage of weeds killed was not less than 60% and less than 80%). Moreover, in assay [11] (10 g ai/10a), the “herbicidal activity rating, MC (Matricaria chamomilla)” value (“herbicidal activity rating, MC” for short) was 2 (percentage of weeds killed was not less than 20% and less than 40%).

Take `COc1cc(Oc2cccc(C(F)(F)F)c2)nc(C(=O)N2CC2C)c1` (centres unmarked) [Compound I-300, 4-methoxy-2-{N-(2-methylaziridinyl)carbonyl}-6-{3-(trifluoromethyl)phenoxy}-2-pyridine]: the “herbicidal activity rating, SN” value in assay [1] (10 g ai/10a) is listed as 5 (percentage of weeds killed was not less than 80%). Moreover, the “herbicidal activity rating, GA” value in assay [2] (10 g ai/10a) is reported as 5 (percentage of weeds killed was not less than 80%). For the same compound, the “herbicidal activity rating, BP” value in assay [3] (10 g ai/10a) is 5 (percentage of weeds killed was not less than 80%). Moreover, the “herbicidal activity rating, SM” value in [4] (10 g ai/10a) is listed as 5 (percentage of weeds killed was not less than 80%). The “herbicidal activity rating, CA” value in [5] (10 g ai/10a) was 4 (percentage of weeds killed was not less than 60% and less than 80%). In [6] (10 g ai/10a), the “herbicidal activity rating, VH” value was 5 (percentage of weeds killed was not less than 80%). Further, the “herbicidal activity rating, SA” value in [7] (10 g ai/10a) is 5 (percentage of weeds killed was not less than 80%). Besides, the “herbicidal activity rating, AR” value in assay [8] (10 g ai/10a) is reported as 5 (percentage of weeds killed was not less than 80%). Moreover, the “herbicidal activity rating, CO” value in assay [9] (10 g ai/10a) was 5 (percentage of weeds killed was not less than 80%). In addition, the “herbicidal activity rating, AT (Abutilon theophrasti)” value in assay [10] (10 g ai/10a) was 4 (percentage of weeds killed was not less than 60% and less than 80%). Also, in assay [11] (10 g ai/10a), the “herbicidal activity rating, MC” value is 2 (percentage of weeds killed was not less than 20% and less than 40%).

As for `COc1cc(Oc2cccc(C(F)(F)F)c2)nc(C(=O)N2CCCC2)c1` [Compound I-302, 4-methoxy-2-{N-(pyrrolidinyl)carbonyl}-6-{3-(trifluoromethyl)phenoxy}pyridine], the “herbicidal activity rating, SN” value in assay [1] (10 g ai/10a) is 5 (percentage of weeds killed was not less than 80%). Besides, the “herbicidal activity rating, GA” value in assay [2] (10 g ai/10a) is on record as 5 (percentage of weeds killed was not less than 80%). The “herbicidal activity rating, BP” value in [3] (10 g ai/10a) was 2 (percentage of weeds killed was not less than 20% and less than 40%). The “herbicidal activity rating, SM” value in [4] (10 g ai/10a) is on record as 5 (percentage of weeds killed was not less than 80%). In addition, in [5] (10 g ai/10a), the “herbicidal activity rating, CA” value is 4 (percentage of weeds killed was not less than 60% and less than 80%). Besides, in [6] (10 g ai/10a), the “herbicidal activity rating, VH” value is listed as 5 (percentage of weeds killed was not less than 80%). The “herbicidal activity rating, SA” value in [7] (10 g ai/10a) is reported as 5 (percentage of weeds killed was not less than 80%). In assay [8] (10 g ai/10a), the “herbicidal activity rating, AR” value was 5 (percentage of weeds killed was not less than 80%). The “herbicidal activity rating, CO” value in [9] (10 g ai/10a) is listed as 5 (percentage of weeds killed was not less than 80%). The “herbicidal activity rating, AT (Abutilon theophrasti)” value in assay [10] (10 g ai/10a) was 4 (percentage of weeds killed was not less than 60% and less than 80%). In assay [11] (10 g ai/10a), the “herbicidal activity rating, MC” value was 4 (percentage of weeds killed was not less than 60% and less than 80%).

In the case of `CC(C)NC(=O)c1cccc(Oc2cccc(C(F)(F)F)c2)n1` [control (a)], the “herbicidal activity rating, SN” value in assay [1] (10 g ai/10a) was 4 (percentage of weeds killed was not less than 60% and less than 80%); in assay [1] (25 g ai/10a), 4 (percentage of weeds killed was not less than 60% and less than 80%); in [1] (62.5 g ai/10a), 5 (percentage of weeds killed was not less than 80%). Moreover, the “herbicidal activity rating, GA” value in assay [2] (10 g ai/10a) is 2 (percentage of weeds killed was not less than 20% and less than 40%); in assay [2] (25 g ai/10a), 3 (percentage of weeds killed was not less than 40% and less than 60%); in assay [2] (62.5 g ai/10a) it was 4 (percentage of weeds killed was not less than 60% and less than 80%). The “herbicidal activity rating, BP” value in assay [3] (10 g ai/10a), in assay [3] (25 g ai/10a) and in [3] (62.5 g ai/10a) was 1 (percentage of weeds killed was less than 20%) in each case. The “herbicidal activity rating, SM” value in assay [4] (10 g ai/10a), in assay [4] (25 g ai/10a) and in assay [4] (62.5 g ai/10a) was 1 (percentage of weeds killed was less than 20%) in each case. For the same compound, the “herbicidal activity rating, CA” value is 2 (percentage of weeds killed was not less than 20% and less than 40%) in assay [5] (10 g ai/10a); 3 (percentage of weeds killed was not less than 40% and less than 60%) in assay [5] (25 g ai/10a); 3 (percentage of weeds killed was not less than 40% and less than 60%) in assay [5] (62.5 g ai/10a). Besides, the “herbicidal activity rating, VH” value in [6] (10 g ai/10a) is 3 (percentage of weeds killed was not less than 40% and less than 60%); in assay [6] (25 g ai/10a), 4 (percentage of weeds killed was not less than 60% and less than 80%); in [6] (62.5 g ai/10a) it was 5 (percentage of weeds killed was not less than 80%). Moreover, the “herbicidal activity rating, SA” value is 3 (percentage of weeds killed was not less than 40% and less than 60%) in assay [7] (10 g ai/10a); 4 (percentage of weeds killed was not less than 60% and less than 80%) in assay [7] (25 g ai/10a); 5 (percentage of weeds killed was not less than 80%) in [7] (62.5 g ai/10a). The “herbicidal activity rating, AR” value was 3 (percentage of weeds killed was not less than 40% and less than 60%) in assay [8] (10 g ai/10a); 3 (percentage of weeds killed was not less than 40% and less than 60%) in assay [8] (25 g ai/10a); 4 (percentage of weeds killed was not less than 60% and less than 80%) in [8] (62.5 g ai/10a). In addition, the “herbicidal activity rating, CO” value in [9] (10 g ai/10a) was 1 (percentage of weeds killed was less than 20%); in assay [9] (25 g ai/10a), 2 (percentage of weeds killed was not less than 20% and less than 40%); in assay [9] (62.5 g ai/10a), 3 (percentage of weeds killed was not less than 40% and less than 60%). The “herbicidal activity rating, AT (Abutilon theophrasti)” value was 2 (percentage of weeds killed was not less than 20% and less than 40%) in assay [10] (10 g ai/10a); 3 (percentage of weeds killed was not less than 40% and less than 60%) in [10] (25 g ai/10a); 3 (percentage of weeds killed was not less than 40% and less than 60%) in assay [10] (62.5 g ai/10a). The “herbicidal activity rating, MC” value in [11] (10 g ai/10a), in assay [11] (25 g ai/10a) and in assay [11] (62.5 g ai/10a) was 1 (percentage of weeds killed was less than 20%) each time.

`CCCNC(=O)c1cccc(Oc2cccc(C(F)(F)F)c2)n1` [control (b)]: in [1] (10 g ai/10a), the “herbicidal activity rating, SN” value is recorded as 5 (percentage of weeds killed was not less than 80%). Further, in assay [2] (10 g ai/10a), the “herbicidal activity rating, GA” value is reported as 5 (percentage of weeds killed was not less than 80%). In addition, the “herbicidal activity rating, BP” value in assay [3] (10 g ai/10a) is 1 (percentage of weeds killed was less than 20%). In addition, the “herbicidal activity rating, SM” value in [4] (10 g ai/10a) was 4 (percentage of weeds killed was not less than 60% and less than 80%). For the same compound, in [5] (10 g ai/10a), the “herbicidal activity rating, CA” value was 2 (percentage of weeds killed was not less than 20% and less than 40%). Further, the “herbicidal activity rating, VH” value in assay [6] (10 g ai/10a) is 5 (percentage of weeds killed was not less than 80%). The “herbicidal activity rating, SA” value in [7] (10 g ai/10a) is 5 (percentage of weeds killed was not less than 80%). Besides, the “herbicidal activity rating, AR” value in [8] (10 g ai/10a) is on record as 5 (percentage of weeds killed was not less than 80%). For the same compound, in assay [9] (10 g ai/10a), the “herbicidal activity rating, CO” value was 3 (percentage of weeds killed was not less than 40% and less than 60%). In assay [10] (10 g ai/10a), the “herbicidal activity rating, AT (Abutilon theophrasti)” value was 3 (percentage of weeds killed was not less than 40% and less than 60%). In addition, the “herbicidal activity rating, MC” value in assay [11] (10 g ai/10a) was 1 (percentage of weeds killed was less than 20%).
